Measured values published in patent US11524966B1 (Valo Early Discovery, Inc., priority 2017, dated 2022).
pIC50: −log10 of the molar value.

Target: T1, USP28 (His-tagged USP28-FL-mammalian) (Homo sapiens, UniProt Q96RU2)
T1 construct: Expression of USP28 (1-1077)-TEV-6*His (pTT5 vector); made in house; host or cells: Expi293f cells (pTT5 vector)
T1 sequence (Q96RU2 1-1077): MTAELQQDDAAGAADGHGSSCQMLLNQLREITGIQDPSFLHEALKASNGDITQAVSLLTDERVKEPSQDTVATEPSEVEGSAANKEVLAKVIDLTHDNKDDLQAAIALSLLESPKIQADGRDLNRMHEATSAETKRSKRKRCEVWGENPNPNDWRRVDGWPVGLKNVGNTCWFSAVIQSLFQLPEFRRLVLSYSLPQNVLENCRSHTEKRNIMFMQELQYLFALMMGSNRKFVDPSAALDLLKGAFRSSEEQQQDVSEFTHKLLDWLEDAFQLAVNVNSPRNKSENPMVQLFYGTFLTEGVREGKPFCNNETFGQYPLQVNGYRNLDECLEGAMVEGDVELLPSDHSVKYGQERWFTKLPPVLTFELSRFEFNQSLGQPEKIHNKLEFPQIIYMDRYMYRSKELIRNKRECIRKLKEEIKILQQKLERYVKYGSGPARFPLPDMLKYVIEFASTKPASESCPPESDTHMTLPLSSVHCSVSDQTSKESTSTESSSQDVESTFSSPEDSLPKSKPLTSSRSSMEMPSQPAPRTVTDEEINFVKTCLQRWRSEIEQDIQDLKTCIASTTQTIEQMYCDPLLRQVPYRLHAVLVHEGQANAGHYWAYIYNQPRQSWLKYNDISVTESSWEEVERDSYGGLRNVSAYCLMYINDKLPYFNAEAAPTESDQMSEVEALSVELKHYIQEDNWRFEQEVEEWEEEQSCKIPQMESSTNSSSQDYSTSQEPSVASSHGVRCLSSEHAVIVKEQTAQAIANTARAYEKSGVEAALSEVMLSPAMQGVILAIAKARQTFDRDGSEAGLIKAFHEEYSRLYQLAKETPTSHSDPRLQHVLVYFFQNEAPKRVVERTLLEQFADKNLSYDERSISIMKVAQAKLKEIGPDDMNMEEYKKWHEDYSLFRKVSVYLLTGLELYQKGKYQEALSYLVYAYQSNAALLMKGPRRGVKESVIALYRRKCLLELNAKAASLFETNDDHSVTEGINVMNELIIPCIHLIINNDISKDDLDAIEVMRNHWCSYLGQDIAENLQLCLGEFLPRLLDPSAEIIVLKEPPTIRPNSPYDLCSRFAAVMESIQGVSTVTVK
Experiment: Ubiquitin-Rhodamine 110 Assay for USP28 Activity, Example A-1(a)
Format: biochemical
Settings: Ubiquitin-Rhodamine 110 assay, Example A-1(a); read-out: USP28 A-1(a) IC50 range
Summary of the method: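 IC50 from 4-parameter logistic fit of percent inhibition versus no-enzyme and DMSO controls; compounds 25 μM to 1.3 nM, 3-fold. Ub-Rh110 cleavage (25 nM, below Km) by […] mammalian-expressed USP28-FL-His ran 45 min at room temperature, stopped with 10 mM citric acid, read ex 485/em 535.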

Compared with `Cc1ccc2c(N)c(C(=O)N[C@H]3COc4cc(N5CCN[C@H](C(F)(F)F)C5)ccc4C3)sc2n1` [Example 3-12, 3-amino-6-methyl-N-((R)-7-((S)-3-(trifluoromethyl)piperazin-1-yl)chroman-3-yl)thieno[2,3-b]pyridine-2-carboxamide], `Cc1ccc2c(N)c(C(=O)N[C@H]3COc4cc(N5CC(O)(C(F)(F)F)C5)ccc4C3)sc2n1` [Example 5-3, (R)-3-amino-N-(7-(3-hydroxy-3-(trifluoromethyl)azetidin-1-yl)chroman-3-yl)-6-methylthieno[2,3-b]pyridine-2-carboxamide] is higher in pIC50: 6.70 to 7.30 for the first, 7.30 to 9.00 for the second. The second is the more potent here.

Compared with `O=C(N[C@H]1COc2cc(N3CCNCC3)ccc2C1)c1ccc(NCc2ccccn2)nc1` [Example 470, (R)-N-(7-(piperazin-1-yl)chroman-3-yl)-6-((pyridin-2-ylmethyl)amino)nicotinamide], `O=C(N[C@H]1COc2cc(N3CCNCC3)ccc2C1)c1ccc(NCc2cccnc2)nc1` [Example 468, (R)-N-(7-(piperazin-1-yl)chroman-3-yl)-6-((pyridin-3-ylmethyl)amino)nicotinamide] is higher in pIC50: under 5.70 for the first, 5.70 to 6.70 for the second.

First: O=C(N[C@@H]1CCc2c(c(F)cc(N3CC4CCC(C3)N4)c2C(F)F)C1)c1cnc2c(c1)[C@@H]1C[C@@H]1CN2 (single isomer, unassigned) [Example 361]
Second: O=C(N[C@H]1CCc2c(c(F)cc(N3CC4CCC(C3)N4)c2C(F)F)C1)c1cnc2c(c1)[C@H]1C[C@H]1CN2 (single isomer, unassigned) [Example 360]
The pIC50 of the first is lower: under 5.70 for the first, 7.30 to 9.00 for the second. The second is the more potent here.

`Cc1ccc2c(N)c(C(=O)N[C@H]3COc4cc(N5C[C@H](N)CC56COC6)ccc4C3)sc2n1` (single isomer, unassigned) [Example 351] and `Cc1ccc2c(N)c(C(=O)N[C@H]3COc4cc(N5C[C@H](N)[C@@H](F)C5)ccc4C3)sc2n1` [Example 3-7, 3-amino-N-((R)-7-((3S,4S)-3-amino-4-fluoropyrrolidin-1-yl)chroman-3-yl)-6-methylthieno[2,3-b]pyridine-2-carboxamide] fall in the same range of pIC50: 7.30 to 9.00 for the first, 7.30 to 9.00 for the second.

Compared with `Cc1cnc2c(N)c(C(=O)N[C@H]3CCc4cc(N5CC(C(=O)O)C5)ccc4C3)sc2n1` [Example 6-4, (S)-1-(6-(7-amino-3-methylthieno[2,3-b]pyrazine-6-carboxamido)-5,6,7,8-tetrahydronaphthalen-2-yl)azetidine-3-carboxylic acid], `Cc1ccc2c(N)c(C(=O)N[C@H]3COc4cc(N5CC[C@@H](C(=O)O)C5)ccc4C3)sc2n1` [Example 6-2, (R)-1-((R)-3-(3-amino-6-methylthieno[2,3-b]pyridine-2-carboxamido)chroman-7-yl)pyrrolidine-3-carboxylic acid] is higher in pIC50: 5.70 to 6.70 for the first, 6.70 to 7.30 for the second.

`CC(=O)N1CCCc2cc(C(=O)N[C@H]3COc4cc(N5CCNCC5)ccc4C3)ccc21` [Example 459, (R)-1-acetyl-N-(7-(piperazin-1-yl)chroman-3-yl)-1,2,3,4-tetrahydroquinoline-6-carboxamide] and `CC(=O)Nc1cccc(CNc2ccc(C(=O)N[C@H]3COc4cc(N5CCNCC5)ccc4C3)cn2)c1` [Example 473, (R)-6-((3-acetamidobenzyl)amino)-N-(7-(piperazin-1-yl)chroman-3-yl)nicotinamide] cannot be ordered by pIC50: under 5.70 for the first, under 5.70 for the second.

First: Cc1ccc2c(N)c(C(=O)N[C@H]3COc4cc(N5CC6CNC[C@@](C)(C5)O6)cc(F)c4C3)sc2n1 [Example 414, 3-amino-N-[(3R)-5-fluoro-7-[(1S)-1-methyl-9-oxa-3,7-diazabicyclo[3.3.1]nonan-3-yl]-3,4-dihydro-2H-1-benzopyran-3-yl]-6-methylthieno[2,3-b]pyridine-2-carboxamide]
Second: CO[C@@H]1CN(c2cc3c(c(F)c2F)C[C@@H](NC(=O)c2sc4nc(C)ccc4c2N)CO3)C[C@H]1N [Example 415, 3-amino-N-[(3R)-7-[(3R,4R)-3-amino-4-methoxypyrrolidin-1-yl]-5,6-difluoro-3,4-dihydro-2H-1-benzopyran-3-yl]-6-methylthieno[2,3-b]pyridine-2-carboxamide]
The pIC50 of the first is lower: 6.70 to 7.30 for the first, 7.30 to 9.00 for the second.

Compared with `Cc1ccc2c(N)c(C(=O)N[C@H]3CCc4nc(N5C[C@@H](N)[C@@]6(CCCO6)C5)ccc4C3)sc2n1` [Example 392, 3-amino-N-[(6S)-2-[(5R,9R)-9-amino-1-oxa-7-azaspiro[4.4]nonan-7-yl]-5,6,7,8-tetrahydroquinolin-6-yl]-6-methylthieno[2,3-b]pyridine-2-carboxamide], `Cc1ccc2c(N)c(C(=O)N[C@H]3CCc4nc(N5C[C@@H](N)[C@H](C(F)(F)F)C5)ccc4C3)sc2n1` [Example 364, 3-amino-N-[(6S)-2-[(3S,4R)-3-amino-4-(trifluoromethyl)pyrrolidin-1-yl]-5,6,7,8-tetrahydroquinolin-6-yl]-6-methylthieno[2,3-b]pyridine-2-carboxamide] is higher in pIC50: 5.70 to 6.70 for the first, 6.70 to 7.30 for the second. The second is the more potent here.

First: O=C(N[C@H]1COc2cc(N3CC4CCC(C3)N4)ccc2C1)c1cnc2c(c1)[C@@H]1C[C@@H]1CN2 [Example 3-15, (1aS,7bR)-N-((3R)-7-(3,8-diazabicyclo[3.2.l]octan-3-yl)chroman-3-yl)-1a,2,3,7b-tetrahydro-1H-cyclopropa[c][1,8]naphthyridine-6-carboxamide]
Second: O=C(N[C@H]1CCc2c(c(F)cc(N3CC4CCC(C3)N4)c2C(F)F)C1)c1cnc2c(c1)[C@@H]1C[C@@H]1CN2 (single isomer, unassigned) [Example 359]
The pIC50 of the first is higher: 7.30 to 9.00 for the first, under 5.70 for the second.

`Cc1ccc2c(N)c(C(=O)N[C@H]3CCc4cc(N5CCNCC5)c(F)c(F)c4C3)sc2n1` [Example 417, 3-amino-N-[(2S)-7,8-difluoro-6-(piperazin-1-yl)-1,2,3,4-tetrahydronaphthalen-2-yl]-6-methylthieno[2,3-b]pyridine-2-carboxamide] and `Cc1ccc2c(N)c(C(=O)N[C@@H]3COc4c(cc(F)c(N5CCNCC5)c4F)C3)sc2n1` (single isomer, unassigned) [Example 3-18] fall in the same range of pIC50: 5.70 to 6.70 for the first, 5.70 to 6.70 for the second.

First: Cc1ccc2c(N)c(C(=O)N[C@H]3CCc4nc(N5C[C@@H](N)[C@@H](OC(C)(F)F)C5)ccc4C3)sc2n1 [Example 358, 3-amino-N-[(6S)-2-[(3R,4S)-3-amino-4-(1,1-difluoroethoxy)pyrrolidin-1-yl]-5,6,7,8-tetrahydroquinolin-6-yl]-6-methylthieno[2,3-b]pyridine-2-carboxamide]
Second: Cc1ccc2c(N)c(C(=O)N[C@H]3CCc4nc(N5C[C@H](N)[C@H](OC(C)(F)F)C5)ccc4C3)sc2n1 [Example 357, 3-amino-N-[(6S)-2-[(3S,4R)-3-amino-4-(1,1-difluoroethoxy)pyrrolidin-1-yl]-5,6,7,8-tetrahydroquinolin-6-yl]-6-methylthieno[2,3-b]pyridine-2-carboxamide]
The pIC50 of the first is lower: 5.70 to 6.70 for the first, 6.70 to 7.30 for the second.

Compared with `CN[C@H]1CN(c2ccc3c(c2)OC[C@H](NC(=O)c2sc4nc(C)ccc4c2N)C3)C[C@@H]1O` [Example 350, 3-amino-N-[(3R)-7-[(3S,4S)-3-hydroxy-4-(methylamino)pyrrolidin-1-yl]-3,4-dihydro-2H-1-benzopyran-3-yl]-6-methylthieno[2,3-b]pyridine-2-carboxamide], `Cc1ccc2c(N)c(C(=O)N[C@H]3COc4cc(N5CCC(O)CC5)ccc4C3)sc2n1` [Example 7-1, (R)-3-amino-N-(7-(4-hydroxypiperidin-1-yl)chroman-3-yl)-6-methylthieno[2,3-b]pyridine-2-carboxamide] is higher in pIC50: 6.70 to 7.30 for the first, 7.30 to 9.00 for the second.

`Cc1ccc2c(N)c(C(=O)N[C@H]3COc4cc(N5CC[C@H](C(=O)O)C5)ccc4C3)sc2n1` [Example 6-3, (S)-1-((R)-3-(3-amino-6-methylthieno[2,3-b]pyridine-2-carboxamido)chroman-7-yl)pyrrolidine-3-carboxylic acid] and `Cc1ccc2c(N)c(C(=O)N[C@H]3CCc4nc(N5C[C@H](N)[C@@H](C(F)(F)F)C5)ccc4C3)sc2n1` [Example 363, 3-amino-N-[(6S)-2-[(3R,4S)-3-amino-4-(trifluoromethyl)pyrrolidin-1-yl]-5,6,7,8-tetrahydroquinolin-6-yl]-6-methylthieno[2,3-b]pyridine-2-carboxamide] fall in the same range of pIC50: 6.70 to 7.30 for the first, 6.70 to 7.30 for the second.
